{"source": "patent US5587402A", "about": "“Regression of mammalian leukemia cell tumors” (priority 1995, dated 1996)", "key": {"[1]": {"assay": "Toxicity of dietary perillyl alcohol in rats", "type": "in vivo, Wistar-Furth female rats", "method": "We used Wistar-Furth female rats for in vivo studies. Wistar-Furth female rats were obtained from Harlan Sprague-Dawley, Inc., (Madison, Wis.). All rats, arriving at 43-48 days of age, were housed at four rats per cage in wire-bottom metal cages and all were maintained with a light/dark cycle of 12 hours. Rates were provided Teklad Lab blox chow and acidified water ad libitum.\nIn the pair-feeding study, a group of 70 mammals was treated with DMBA. Beginning four weeks post-carcinogen administration, mammals were weighed and palpated weekly. Upon palpation of the first mammary tumor(s) (diameter≥3 mm), mammals were randomly assigned to control or 2.5% (w/w) perillyl alcohol diet and pair-fed.\nPerillyl alcohol (>96% pure by GC analysis, Aldrich, Milwaukee, Wis.) and Teklad 4% mouse/rat diet meal were thoroughly mixed and stored at -20° C. Fresh diets were make every 7-10 days. All mammals were provided fresh diet daily to minimize evaporation of the monoterpenes. For pair-feeding, the quantity of diet consumed by the monoterpene-fed mammals was measured every 24 hours and the assigned partner was pair-fed accordingly."}, "[2]": {"system": "DMBA-induced rat mammary carcinomas", "assay": "Pair-feeding study: regression and inhibition of DMBA-induced mammary carcinomas in rats", "type": "in vivo, Wistar-Furth female rats", "method": "We used Wistar-Furth female rats for in vivo studies. Wistar-Furth female rats were obtained from Harlan Sprague-Dawley, Inc., (Madison, Wis.). […] Rates were provided Teklad Lab blox chow and acidified water ad libitum.\nThe DMBA was dissolved in a stock solution of 20 mg DMBA/ml sesame oil, heated and allowed to cool to room temperature before administration. DMBA (Eastman Kodak, Rochester, N.Y.) was given as a single gastric intubation of 50 mg DMBA/kg rat body weight.\nIn the pair-feeding study, a group of 70 mammals was treated with DMBA. Beginning four weeks post-carcinogen administration, mammals were weighed and palpated weekly.\nFresh diets were make every 7-10 days. All mammals were provided fresh diet daily to minimize evaporation of the monoterpenes.\nIn a pair-feeding study, all palpable mammary tumors were classified as either \"primary\" tumors (i.e., the first tumor(s) palpated with a minimum diameter of 3 mm) or \"secondary\" tumors (i.e. a palpable tumor arising after initial diet assignment). […] All carcinogen-exposed mammals not bearing a first palpable tumor by week 15 post-carcinogen were removed from the experiment. Complete regression of a tumor was defined as non-palpability for a minimum of three consecutive weeks. All mammals in the pair-feeding study were followed for a minimum of 10 weeks post-diet assignment for tumor growth or regression at primary tumor sites and all other mammary glands. The rats were necropsied if moribund. Complete necropsies were performed on all rats at the termination of the study."}, "NIH3T3 cells": {"system": "NIH3T3 cells", "assay": "Inhibition of NIH3T3 cell growth", "type": "cell-based, mouse", "settings": "FIG. 3", "method": "(§1) NIH3T3 (mouse embryo) cells were obtained from the American Type Culture Collection and were grown in Dulbecco's modified Eagle's medium supplemented with 10% calf serum. M600B immortalized human mammary epithelial cells (Stampfer, M. R., 1985, J. Tissue Culture Methods 9: 107-115) were obtained from Dr. Martha Stampfer and were grown in supplemented HCDB 170 medium (Hammond, et al. (1984) Proc. Natl. Acad. Sci U.S.A. 81: 5435-5439), as described previously (Stampfer, et al. (1985) Proc. Natl. Acad. Sci U.S.A. 82: 2394-2398; Eldridge, et al. (1989) Cancer Res. 49: 4326-4331).\n(§2) All cells were maintained in 100-mm dishes at 37° C. in a humidified 5% CO2 atmosphere. Viable cells were distinguished from nonviable cells by counting azure II/methylene blue-stained colonies 10 days after the cells were plated at a density of 100 cells per dish. Trypan blue exclusion was measured by incubating cells for 1 minute with one drop of trypan blue per 10 ml of cells. Viable (colorless) and nonviable (blue) cells were then counted on a hemocytometer.\n(§3) Additionally, growth of HT29 (human colon adenocarcinoma) cells was inhibited by 80% by 1 mM perillyl alcohol."}, "[3]": {"system": "isoprenylation of 21-26 kDa proteins in NIH3T3 (mouse embryo) cells", "assay": "Protein isoprenylation in NIH3T3 cells (21-26 kDa bands, SDS-PAGE fluorography)", "type": "cell-based", "design": "Relative activity (inhibition of isoprenylation of 21-26 kDa proteins): key to the marks not given beside the values", "settings": "Experiment 2; 1 mM", "method": "NIH3T3 (mouse embryo) cells were obtained from the American Type Culture Collection and were grown in Dulbecco's modified Eagle's medium supplemented with 10% calf serum. […] Because they carried a radioactive label, isoprenylated proteins were visualized by fluorography. As a control, cells were incubated without the monoterpene. […] Whole cell extracts were analyzed by SDS-PAGE on 16-cm×18-cm×0.75-mm gels by the method of Laemmli (supra). […] Gels were stained with Coomassie Brilliant Blue, equilibrated for 20 minutes in Amplify (Amersham Corp.) fluorographic reagent, dried under vacuum at 65° C., and exposed to […] Some fluorograms were analyzed further by densitometry. […] Protein content was measured by the method of Lowry, et al. […] FIG. 1 depicts the structures of these monoterpenes."}, "[4]": {"system": "nontransformed FDC-P1 cells", "assay": "Proliferation of nontransformed FDC-P1 myeloid cells", "type": "cell-based, murine", "settings": "Mus musculus, FDC-P1, read-out: inhibition of cell growth", "method": "(The p210 bcr/abl oncogene is carried on a helper-free retrovirus referred to as \"p210.\") FDC-P1 myeloid cells are an immature cell line from myeloid lineage derived from mouse bone marrow (Dexter, TM, J. Exp. Med. 152: 1036-1047, 1980)."}, "M600B cells": {"system": "M600B cells", "assay": "Inhibition of M600B cell growth", "type": "cell-based, human", "settings": "FIG. 4", "method": "as §1, §2, §3"}, "human cancer cell lines": {"system": "human cancer cell lines", "assay": "Growth of human cancer cell lines (NCI Developmental Therapeutics Program)", "type": "cell-based", "method": "Various concentrations of perillyl alcohol inhibited the growth of a number of human cancer cell lines. FIG. 5A-G is a set of diagrams showing the effects of perillyl alcohol on different cancer cell lines. These experiments were conducted by the National Cancer Institute Developmental Therapeutics Program."}, "[5]": {"system": "nontransformed FDC-P1 cells", "assay": "Cell cycle distribution of nontransformed FDC-P1 cells", "type": "cell-based, murine", "settings": "for Cell cycle distribution (% > GO /G1): 24 hours, untreated control 62", "method": "Table 3 tabulates the effect of P-OH on cell cycle distribution of nontransformed and p210 transformed FDC-P1 cells.\n^1 Cells were plated at 2.5 × 10^5 per ml in duplicate well\nof a 24well plate in the presence of 10% WEHI3-conditioned media as a\nsource of IL3 and with the indicated concentration of P--OH. After 24\nhours, the cells were fixed in ethanol, permeabilized and stained with\npropidium iodide, then analyzed for DNA content by flow cytometry.\n^2 FDCP1 = nontransformed cells, Fp210.1 = 210transformed FDCP1 cells"}}, "note": "Entries after “also recorded” stand apart in the source; their conditions may differ.", "data": [{"compound": "C=C(C)[C@@H]1CC=C(CO)CC1", "note": "[perillyl alcohol]", "values": [{"measurement": "maximum dose tolerated (diet)", "setting": "[1]; diet, data not shown", "value": 2.5, "unit": "%"}, {"measurement": "body weight", "setting": "[1]; perillyl alcohol-fed versus control, FIG. 8", "value": "initial weight loss followed by weight gain and a plateau; also recorded: did not achieve weights similar to controls"}, {"measurement": "development of secondary tumors", "setting": "[2]; 2.5% perillyl alcohol diet", "value": "inhibited the development of secondary tumors"}, {"measurement": "Primary Tumor Regression (tumors regressed / tumors)", "setting": "[2]; 2.5% perillyl alcohol diet, complete regression, pair-fed control 9/29, listed as POH", "value": "22/27"}, {"measurement": "Primary Tumor Regression (%)", "setting": "[2]; 2.5% perillyl alcohol diet, complete regression, pair-fed control 31%", "value": 81, "unit": "%"}, {"measurement": "Number of Secondary Tumors/Rat", "setting": "[2]; 2.5% perillyl alcohol diet, pair-fed control 1.62", "value": 0.04}, {"measurement": "Time to Regress", "setting": "[2]; 2.5% perillyl alcohol diet, pair-fed control 5.6, listed as POH", "value": "3.6 ± 0.3", "unit": "wks"}, {"measurement": "Secondary Tumor Regression (tumors regressed / tumors)", "setting": "[2]; 2.5% perillyl alcohol diet, pair-fed control 11/42", "value": "0/1"}, {"measurement": "Secondary Tumor Regression (%)", "setting": "[2]; 2.5% perillyl alcohol diet, pair-fed control 26%", "value": 0, "unit": "%"}, {"measurement": "secondary tumors / mammals", "setting": "[2]; 2.5% perillyl alcohol diet, pair-fed control 42/26", "value": "1/26"}, {"measurement": "amount of perillyl alcohol needed relative to the amount of limonene", "setting": "[2]; 2.5% perillyl alcohol versus 10% limonene diet", "value": 25, "unit": "%"}, {"measurement": "time for a primary tumor to regress to a non-palpable mass", "setting": "[2]; perillyl alcohol-treated group versus pair-fed controls", "value": "shorter than the time for spontaneous regression in the pair-fed controls"}, {"measurement": "inhibition of cell growth", "setting": "NIH3T3 cells", "value": "significantly inhibited cell growth in a dose-dependent manner"}, {"measurement": "Relative activity (inhibition of isoprenylation of 21-26 kDa proteins)", "setting": "[3]", "value": "+++++"}, {"measurement": "inhibition at 400 µM", "setting": "[4]", "value": "< 15", "unit": "%"}, {"measurement": "inhibition of cell growth", "setting": "M600B cells", "value": "significantly inhibited cell growth in a dose-dependent manner"}, {"measurement": "inhibition of cell growth", "setting": "human cancer cell lines; variety of human cancer cell types including leukemia cells (FIG. 5A)", "value": "inhibition of cell growth"}, {"measurement": "inhibition of cancer cell growth", "setting": "human cancer cell lines; various concentrations, FIG. 5A-G, all lines", "value": "inhibited cancer cell growth"}, {"measurement": "Cell cycle distribution (% > GO /G1)", "setting": "[5]; 100 μM P--OH", "value": 57, "unit": "%"}, {"measurement": "Cell cycle distribution (% > GO /G1)", "setting": "[5]; 500 μM P--OH", "value": 49, "unit": "%"}, {"measurement": "changes in the cell cycle distribution", "setting": "[5]; up to 500 μM", "value": "only minor changes"}]}]}
